Measurements taken from patent publication US20110183978A1, “Phenylpyri(mi)dinylazoles” (Bayer CropScience AG, priority 2009, published 2011).
Read-outs that look alike come from different tables or passages of the source.

Experiments:
[1] = test system: Mycosphaerella graminicola; assay: Example G: in vivo test on Mycosphaerella graminicola (wheat leaf blotch disease); settings: Zymoseptoria tritici, wheat plants sprayed 24 hours before inoculation, scored after 21 to 28 days, read-out: % Wirkungsgrad
Procedure: In Vivo Test on Mycosphaerella Graminicola (Wheat Leaf Blotch Disease) An aqueous suspension of the active substance was prepared by homogenization of a mixture of acetone/Tween/dimethyl sulphoxide and subsequent dilution with water to the desired concentration. Wheat plants (variety: Scipion) are sown in cultivation dishes on a peat-pozzolanic earth substrate (50/50) at 12° C. and sprayed at the first-leaf stage (10 cm size) with the aqueous suspension described above. As a control, plants are sprayed with an aqueous solution with no active substance. After 24 hours the plants are inoculated by spraying with an aqueous suspension of Mycosphaerella graminicola spores (500,000 spores per ml). The spores are derived from a 7 day-old culture. […] After 21 to 28 days they are scored in comparison with the control plants.

[2] = physchem
[3] = test system: Alternaria solani; assay: Example M: in vivo test on Alternaria solani (leaf blotch disease/tomato/protective); settings: 168 h, tomato, protective, 500 ppm active substance, assessed 7 days after inoculation, read-out: % Wirkungsgrad (activity level)
Method in brief: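 Protective test: young tomato plants sprayed with active substance (in DMF with alkylaryl polyglycol ether emulsifier, diluted in water) at the stated dosage, then inoculated with Alternaria solani. Disease assessed 7 days after inoculation.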

[4] = test system: Plasmopara viticola; assay: Example N: in vivo test on Plasmopara viticola (downy mildew, vine/protective); settings: 144 h, vine, protective, assessment 6 days after inoculation, read-out: % Wirkungsgrad
Procedure: (§1) Emulsifier: 1 part by weight alkylaryl polyglycol ethers For the preparation of a suitable active substance preparation, 1 part by weight of active substance is mixed with the stated quantities of solvent and emulsifier and the concentrate is diluted to the desired concentration with water. For the testing for protective activity, young plants are sprayed with the active substance preparation at the stated application dosage. […] The plants are then moistened and placed in an incubation cabin for 1 day. 6 days after the inoculation, the assessment takes place.

[5] = test system: Venturia inaequalis; assay: Example O: in vivo test on Venturia inaequalis (apple scab/protective); settings: 240 h, protective, assessment 10 days after inoculation, read-out: % Wirkungsgrad
Procedure: as §1, with “10” for “The plants are then moistened and placed in an incubation cabin for 1 day. 6”

[6] = test system: Botrytis cinerea; assay: Example P: in vivo test on Botrytis cinerea (gray mould on bean/protective); settings: 48 h, bean, protective, 250 ppm active substance, assessed 2 days after inoculation, read-out: % Wirkungsgrad (activity level)
Procedure: as §1, with “dosage. After drying of the spray coating, 2 small pieces of agar with Botrytis cinerea growing on them are laid on every leaf.” for “dosage.”, “2” for “The plants are then moistened and placed in an incubation cabin for 1 day. 6”, “size of the infection blotches on the leaves is assessed.” for “assessment takes place.”

[7] = test system: Sphaerotheca fuliginea; assay: Example L: in vivo test on Sphaerotheca fuliginea (powdery mildew on cucumber/protective); settings: Podosphaera fuliginea, 168 h, cucumber, protective, assessment 7 days after inoculation, read-out: % Wirkungsgrad
Method in brief: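 Young cucumber plants sprayed at stated dosage with compound in DMF/alkylaryl polyglycol ether emulsifier diluted in water; inoculated with S. fuliginea spores one day later. Kept in greenhouse at 70% relative humidity, 23° C; protective activity assessed 7 days after inoculation.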

[8] = test system: Fusarium graminearum; assay: microbe, parasite or virus in culture; assay type: cell-based
[9] = test system: Sphaerotheca fuliginea; assay: Example D: in vivo test on Sphaerotheca fuliginea (powdery mildew on cucumber); settings: Podosphaera fuliginea, 288 h, cucumber plants sprayed 24 hours before inoculation, scored after 12 days, read-out: % Wirkungsgrad
Procedure: In Vivo Test on Sphaerotheca Fuliginea (Powdery Mildew on Cucumber) An aqueous suspension of the active substance was prepared by homogenization of a mixture of acetone/Tween/dimethyl sulphoxide and subsequent dilution with water to the desired concentration. Cucumber plants (variety: Vert petit de Paris) are sown in cultivation dishes on a peat-pozzolanic earth substrate (50/50) at 20/23° C. and at the cotyledon stage Z10 sprayed with the aqueous suspension described above. As a control, plants are sprayed with an aqueous solution with no active substance. After 24 hours the plants are inoculated by spraying with an aqueous suspension of Sphaerotheca fuliginea spores (100,000 spores per ml). The spores are derived from a contaminated plant. The inoculated cucumber plants are incubated at ca. 20/25° C. at a relative atmospheric humidity of 60/70%. After 12 days they are scored in comparison with the control plants.

[10] = test system: Fusarium graminearum; assay: whole plant or invertebrate; assay type: in vivo; settings: in Hordeum vulgare, 120 h, read-out: % Wirkungsgrad (activity level)
[11] = test system: Fusarium proliferatum; assay: Example I: production of fumonisin FB1 by Fusarium proliferatum (microtitre plates); assay type: cell-based; settings: 120 h
[12] = test system: Peronospora parasitica; assay: Example A: in vivo test on Peronospora parasitica (downy mildew on white cabbage); settings: Hyaloperonospora parasitica, 120 h, cabbage plants sprayed 24 hours before inoculation, scored after 5 days, read-out: % Wirkungsgrad
Procedure: In Vivo Test on Peronospora Parasitica (Downy Mildew on White Cabbage) An aqueous suspension of the active substance was prepared by homogenization of a mixture of acetone/Tween (dispersant)/dimethyl sulphoxide (DMSO) and subsequent dilution with water to the desired concentration. Cabbage plants (variety: Eminence) are sown in cultivation dishes on a peat-pozzolanic earth substrate (50/50) at 18-20° C. and sprayed at the cotyledon stage with the aqueous suspension described above. As a control, plants are sprayed with an aqueous solution with no active substance. After 24 hours, the plants are inoculated by spraying with an aqueous suspension of Peronospora parasitica spores (50,000 spores per ml). The spores are derived from infected plants. The inoculated cabbage plants are incubated for 5 days at ca. 20° C. in a moist atmosphere. After 5 days, they are scored in comparison with the control plants.

[13] = LogPA (logP of the stated pure compound or, in a mixture, of the main isomer, 1-substituted 3-aryl-1H-pyrazole)
[14] = 72 h, read-out: % Inhibition des Pilzwachstums bei 50 μM
[15] = 168 h, read-out: % Inhibition der DON/AcDON produktion bei 50 μM
[16] = Fusarium proliferatum growth, OD 620, 5 days, read-out: % Inhibition des Pilzwachstums bei 50 μM
[17] = Fusarium proliferatum, 5 days at 20° C., HPLC-MS/MS, read-out: % Inhibition der FB1 produktion bei 50 μM

Row | SMILES | pest or weed control at 500 ppm [1] [%] | chromatographic logP [2, 13] | pest or weed control at 500 ppm [3] [%] | pest or weed control at 100 ppm [4] [%] | chromatographic logP ([2]; LogPA) | pest or weed control at 100 ppm [5] [%] | pest or weed control at 250 ppm [6] [%] | pest or weed control at 500 ppm [7] [%] | inhibition at 50 µM [8, 14] [%] | inhibition at 50 µM [8, 15] [%] | pest or weed control at 500 ppm [9] [%] | pest or weed control at 1000 ppm [10] [%] | inhibition at 50 µM [11, 16] [%] | inhibition at 50 µM [11, 17] [%] | pest or weed control at 500 ppm [12] [%]
1 | CC(C)n1ncc(-c2ccnc(NC(=O)C(C)(C)C)c2)c1-c1ccc(F)cc1 [Compound 72] | 83 | 2.99 | 95 |  |  |  |  |  |  |  |  |  |  |  | 
2 | O=C(Nc1cc(-c2cn(CC(F)F)nc2-c2ccc(F)cc2)ccn1)c1ccccc1 [Compound 237] |  |  | 100 | 84 | 2.9 | 95 | 100 | 88 |  |  |  |  |  |  | 
3 | C#CCNc1nccc(-c2cn(CC(C)C)nc2-c2ccc(F)cc2)n1 [Compound 183] |  |  | 100 | 86 | 2.76 | 73 | 93 | 94 | 65 | 99 |  |  |  |  | 
4 | Fc1cccc(F)c1-c1nn(CC(F)(F)F)cc1-c1ccncc1 [Compound 12] | 77 | 1.39 |  |  |  |  |  |  |  |  | 95 |  |  |  | 
5 | Fc1cccc(F)c1-c1c(-c2ccncc2)cnn1CC1CCCO1 (centres unmarked) [Compound 27] | 97 | 1.21 |  |  |  |  |  |  |  |  | 73 |  |  |  | 
6 | O=C(CC1CC1)Nc1cc(-c2cn(CC3CC3(Cl)Cl)nc2-c2ccc(F)cc2)ccn1 (centres unmarked) [Compound 251] |  |  | 94 |  | 3.3 | 84 | 95 | 96 |  |  |  | 83 |  |  | 
7 | CNC(=O)c1cc(-c2cn(C(C)C)nc2-c2ccc(F)cc2)ccn1 [Compound 53] | 91 | 2.74 |  |  |  |  |  |  |  |  | 98 |  | 0 | 96 | 
8 | CC(=O)Nc1cc(-c2cn(C(C)C)nc2-c2ccc(F)cc2)ccn1 [Compound 161] |  | 1.85 | 95 | 95 |  | 95 | 100 | 100 | 104 | 100 |  |  |  |  | 
9 | CCC(C)C(=O)Nc1cc(-c2cn(CC(F)F)nc2-c2ccc(F)cc2)ccn1 (centres unmarked) [Compound 239] |  |  | 100 | 88 | 2.62 | 98 |  | 95 |  |  |  |  |  |  | 
10 | CCC(=O)Nc1cc(-c2cn(CCCl)nc2-c2ccc(F)cc2)ccn1 [Compound 219] |  |  |  | 95 | 2.01 | 96 | 100 | 100 | 97 | 100 |  |  | 97 | 100 | 
11 | CC(=O)n1ccc2c(-c3cn(C4CCCCO4)nc3-c3ccc(F)cc3)ccnc21 (centres unmarked) [Compound 81] | 97 | 3.85 | 95 |  |  |  |  |  |  |  | 77 |  |  |  | 89
12 | CC(C)(C)Cn1ncc(-c2ccncc2)c1-c1c(F)cccc1F [Compound 6] | 85 | 1.79 |  |  |  |  |  |  |  |  | 95 |  |  |  | 70
13 | Fc1cccc(F)c1-c1nn(C2CCCC2)cc1-c1ccncc1 [Compound 16] | 97 | 1.79 |  |  |  |  |  |  |  |  |  |  |  |  | 
14 | Fc1cccc(F)c1-c1nn(CC2CCCO2)cc1-c1ccncc1 (centres unmarked) [Compound 26] | 88 | 1.16 |  |  |  |  |  |  |  |  | 80 |  |  |  | 
15 | CC(C)n1cc(-c2ccnc(NC(=O)c3ccsc3)c2)c(-c2ccc(F)cc2)n1 [Compound 207] |  |  | 90 | 71 | 2.96 | 86 | 100 | 100 | 75 | 100 |  |  |  |  | 
16 | CC(C)CC(=O)Nc1cc(-c2cn(C(C)C)nc2-c2ccc(F)cc2)ccn1 [Compound 160] |  | 2.82 | 95 | 79 |  | 94 | 100 | 100 | 100 | 100 |  |  |  |  | 
17 | CCOC(=O)CCn1cc(-c2ccncc2)c(-c2ccc(F)cc2)n1 [Compound 132] | 86 | 1.29 |  |  |  |  |  |  |  |  | 82 |  |  |  | 
18 | O=C(Nc1cc(-c2cn(CC3CC3(Cl)Cl)nc2-c2ccc(F)cc2)ccn1)C1CC1 (centres unmarked) [Compound 260] |  |  | 90 | 70 | 2.67 | 94 | 100 | 95 | 5 | 99 |  |  |  |  | 
19 | C#CCn1ccc2c(-c3cn(C(C)C)nc3-c3ccc(F)cc3)ccnc21 [Compound 47] | 77 | 3.63 |  |  |  |  |  |  |  |  |  |  | 0 | 98 | 
20 | O=C(Nc1cc(-c2cn(CC(F)F)nc2-c2ccc(F)cc2)ccn1)c1cccs1 [Compound 236] |  |  | 94 | 76 | 2.82 | 94 | 100 | 86 |  |  |  |  |  |  | 
21 | Fc1cccc(F)c1-c1c(-c2ccncc2)cnn1C1CCC1 [Compound 15] | 97 | 1.49 | 95 |  |  |  |  | 95 |  |  | 87 |  |  |  | 75
